Experimental findings from paper PMC4650713, “Crystal structure of Bax bound to the BH3 peptide of Bim identifies important contacts for interaction” (Cell Death & Disease, 2015) are described below.

Assay [1] deals with T1, BaxΔC21 (Homo sapiens, UniProt Q07812, C126S/C62S).
T1 construct: made in house; host or cells: Escherichia coli BL21(DE3) or ER2566
Briefly: Bax binding assay: SPR, BH3 peptides displacing BaxΔC from a BimBH3 chip. The following applies: SPR competition, 0.5% octylglucoside.
Procedure: Bax binding assays were performed using a protocol modified from that described previously.[18] […] IC50 values were calculated with GraphPad Prism (GraphPad Software, La Jolla, CA, USA).

The test system of assay [2] is BaxΔC21. The assay can be described thus: Core/latch dimer formation of BaxΔC21 with CHAPS and BH3 peptide, analysed by SEC. The class given is biochemical. The following applies: BaxΔC21 2 mg/ml, twofold molar excess of peptide, 1% CHAPS, 1 h at room temperature. For orientation: In gel filtration, larger molecules generally elute earlier.
The test system of the next assay is full-length Bax. The assay can be described thus: Liposome permeabilisation (carboxy-fluorescein release) by full-length Bax in response to BH3 peptides. Conditions: liposomes 4 μg/ml, 50 nM full-length Bax, 500 nM BH3 peptide, 1 h at RT; three independent experiments. The class given is biochemical.
Assay [3] deals with mitochondria isolated from Bak−/− Bax−/− mouse embryonic fibroblasts (MEFs) ectopically expressing BaxS184L. The assay can be described thus: Cytochrome c release from isolated mitochondria. The class given is cell-based. The following applies: immunoblot of supernatant and pellet, representative of two independent experiments.
Procedure: To test whether this change in binding affinity influenced apoptotic activity, we assessed the ability of each peptide to induce cytochrome c release from mitochondria isolated from Bak^−/− Bax^−/− mouse embryonic fibroblasts (MEFs) ectopically expressing the mitochondrially targeted Bax variant BaxS184L.[28]
BaxS184L was stably expressed in Bax^−/− Bak^−/− MEFs and cytochrome c release assays were performed as described for Bak.[23] Supernatant and pellet fractions were separated and analysed for cytochrome c by immunoblotting.

Where no end group is shown, it is not given here.

T1 sequence (Q07812 1-171 C62S/C126S): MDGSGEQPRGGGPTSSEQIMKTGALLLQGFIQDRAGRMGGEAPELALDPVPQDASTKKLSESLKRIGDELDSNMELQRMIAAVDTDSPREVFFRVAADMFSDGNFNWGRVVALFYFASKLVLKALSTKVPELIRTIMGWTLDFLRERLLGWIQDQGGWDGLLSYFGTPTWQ
Procedure for full-length Bax: The suspension was extruded through a 100 nm pore size membrane and then passed over a PD10 column to remove unincorporated dye. Liposomes at 4 μg/ml were incubated with 50 nM full-length Bax and 500 nM BH3 peptide in SUV buffer for 1 h at RT. Fluorescence of released self-quenching 5(6)-carboxy-fluorescein was measured with an excitation wavelength of 485 nm and emission wavelength of 535 nm.

As for “SESQEDIIRNIARHLRQVGDSMDRSIPPGLVNGL [BidBH3 A91R]”, on BaxΔC21 [1], the “binding to BaxΔC21 in the SPR assay” value was “behaved similar to BimBH3”. Moreover, the “ability to trigger core/latch dimer formation of BaxΔC21” value in the assay on BaxΔC21 [2] is reported as “largely unaffected”. For the same sequence, in the assay with full-length Bax, the “capacity to activate Bax in liposome permeabilisation assay” value is listed as “enhanced activity over BidBH3”. For the same sequence, the “potency at releasing cytochrome c from mitochondria” value in assay [3] is “at best a marginally more effective than BidBH3”.
